The results in this text go back to patent publication US6440964B1, “Compositions and methods for treating ophthalmic and otic infections” (priority 1998, dated 2002).

≈ marks a conversion by molar mass, not a printed value. Where two headings read alike, the source gives them in different places.

The test system of experiment [1] is Microbacterium otitidis. Nature of the experiment: In vitro activity (MIC) by agar and broth dilution methods against clinical isolates. The format is cell-based. As to conditions: for MIC: read-out: minimum inhibitory concentration (MIC). How it is done: (§1) The activity levels were determined as MIC (minimum inhibitory concentration) values. In order to compare the activity of the compounds of the present invention to other antibiotics, MIC values for representatives quinolones, aminoglycosides, β-lactams and other types of antibiotics were also determined. […] The MCC numbers (e.g., “MCC 10647”) represent separate clinical isolates of the two Microbacterium species tested.
On the technique in general: In broth dilution the organism is exposed to a series of concentrations in liquid medium.

Experiment [2] relates to Microbacterium alconae. The experiment is described as above. It counts as cell-based. The settings on record: for MIC: read-out: minimum inhibitory concentration (MIC). As for the experimental part:
as §1

The test system of experiment [3] is M. alconae. Nature of the experiment: MIC90 of Moxifloxacin for bacteria associated with ophthalmic, otic and nasal infections. It counts as cell-based, Microbacterium alconae. From the text: (§2) The concentrations of the antibiotics of formula (I) in the compositions of the present invention will vary depending on the intended use of the compositions (e.g., treatment of existing infections or prevention of post-surgical infections), and the relative antimicrobial activity of the specific antibiotic selected. The antimicrobial activity of antibiotics is generally expressed as the minimum concentration required to inhibit the growth of a specified pathogen. This concentration is also referred to as the “minimum inhibitory concentration” or “MIC”. The term “MIC90” refers to the minimum concentration of antibiotic required to inhibit the growth of ninety percent (90%) of the strains of a species. The concentration of an antibiotic required to totally kill a specified bacteria is referred to as the “minimum bactericidal concentration” or “MBC”.

Experiment [4] relates to S. epidermidis/methicillin resistant. Described as above. The format is cell-based.
From the text: as §2

In experiment [5] the test system is S. epidermidis/methicillin sensitive. The experiment is described as above. It counts as cell-based.
From the text: as §2

Experiment [6] concerns S. aureus/methicillin resistant. Described as above. It counts as cell-based.
From the text: as §2

Experiment [7] deals with S. pneumoniae/penicillin sensitive. Described as above. The format is cell-based.
From the text: as §2

Experiment [8] relates to H influenzae/βlactamase negative. The experiment is described as above. The format is cell-based.
From the text: as §2

Experiment [9] has as its system S. aureus/quinolone resistant. The description is as above. It counts as cell-based.
From the text: as §2

Experiment [10] concerns S. pneumoniae/penicillin resistant. The experiment is described as above. The format is cell-based.
From the text: as §2

Experiment [11] relates to P. aeruginosa. The experiment is described as above. The format is cell-based.
From the text: as §2

The subject of experiment [12] is S. aureus/methicillin sensitive. The description is as above. The format is cell-based.
From the text: as §2

Experiment [13] has as its system H. influenzae/β-lactamase positive. The experiment is described as above. The format is cell-based.
From the text: as §2

The subject of experiment [14] is M. otitidis. Described as above. The format is cell-based, Microbacterium otitidis.
From the text: as §2

With Gentamicin, the “minimum inhibitory concentration (MIC)” value in experiment [1] (clinical isolate MCC 10647) amounted to 8.0 micrograms per milliliter; in [1] (clinical isolate MCC 10810), 4.0 micrograms per milliliter; in [1] (clinical isolate MCC 10990), 4.0 micrograms per milliliter; in experiment [1] (clinical isolate MCC 11495), 16 micrograms per milliliter; in [1] (clinical isolate MCC 11676) it was 4.0 micrograms per milliliter; in [2] (clinical isolate MCC 11316) it was 2.0 micrograms per milliliter. Also, the “minimum inhibitory concentration (MIC)” value in experiment [2] (clinical isolate MCC 11558), in [2] (clinical isolate MCC 11639), in [2] (clinical isolate MCC 11653) and in experiment [2] (clinical isolate MCC 11699) was 2.0 micrograms per milliliter in each case.
As for Polymyxin B, the “minimum inhibitory concentration (MIC)” value in [1] (clinical isolate MCC 10647) was 1040 micrograms per milliliter; in experiment [1] (clinical isolate MCC 10810), 260 micrograms per milliliter; in experiment [1] (clinical isolate MCC 10990), 260 micrograms per milliliter; in [1] (clinical isolate MCC 11495) it was 1040 micrograms per milliliter; in [1] (clinical isolate MCC 11676) it was 16 micrograms per milliliter; in [2] (clinical isolate MCC 11316), 32.5 micrograms per milliliter. Moreover, the “minimum inhibitory concentration (MIC)” value in experiment [2] (clinical isolate MCC 11558) amounted to 32.5 micrograms per milliliter; in experiment [2] (clinical isolate MCC 11639), 16 micrograms per milliliter; in [2] (clinical isolate MCC 11653), 16 micrograms per milliliter; in experiment [2] (clinical isolate MCC 11699), 16 micrograms per milliliter.
Take `CN(C)[C@@H]1C(O)=C(C(N)=O)C(=O)[C@@]2(O)C(O)=C3C(=O)c4c(O)cccc4[C@@](C)(O)[C@H]3C[C@@H]12` [Tetracycline]: the MIC in [1] (clinical isolate MCC 10647), in experiment [1] (clinical isolate MCC 10810), in [1] (clinical isolate MCC 10990), in experiment [1] (clinical isolate MCC 11495), in [1] (clinical isolate MCC 11676) and in [2] (clinical isolate MCC 11316) was 1 µg/mL (≈ 2.25 µM) in each case. Also, the MIC in experiment [2] (clinical isolate MCC 11558), in experiment [2] (clinical isolate MCC 11639), in experiment [2] (clinical isolate MCC 11653) and in experiment [2] (clinical isolate MCC 11699) was 1 µg/mL (≈ 2.25 µM) throughout.
For the molecule Moxifloxacin, the MIC90 in experiment [3] came out at 0.25 µg/mL; in experiment [4], 4.0 µg/mL; in experiment [5] it was 0.25 µg/mL; in experiment [6] it was 4.0 µg/mL; in experiment [7], 0.25 µg/mL; in experiment [8], 0.06 µg/mL. Moreover, the MIC90 in [9] was found to be 4.0 µg/mL; in experiment [10], 0.25 µg/mL; in experiment [11], 8.0 µg/mL; in [12] it was 0.13 µg/mL; in [13] it was 0.06 µg/mL; in experiment [14], 2.0 µg/mL.
With `O=C(N[C@H](CO)[C@H](O)c1ccc([N+](=O)[O-])cc1)C(Cl)Cl` [Chloramphenicol], the MIC amounted to 1 µg/mL (≈ 3.09 µM) in experiment [1] (clinical isolate MCC 10647); 1 µg/mL (≈ 3.09 µM) in [1] (clinical isolate MCC 10810); 1 µg/mL (≈ 3.09 µM) in experiment [1] (clinical isolate MCC 10990); 1 µg/mL (≈ 3.09 µM) in experiment [1] (clinical isolate MCC 11495); 1 µg/mL (≈ 3.09 µM) in [1] (clinical isolate MCC 11676); 16 µg/mL (≈ 49.5 µM) in experiment [2] (clinical isolate MCC 11316). For the same molecule, the MIC in [2] (clinical isolate MCC 11558), in experiment [2] (clinical isolate MCC 11639), in experiment [2] (clinical isolate MCC 11653) and in experiment [2] (clinical isolate MCC 11699) was 16 µg/mL (≈ 49.5 µM) each time.
Regarding `CCC[C@@H]1C[C@@H](C(=O)N[C@@H]([C@H]2O[C@H](SC)[C@H](O)[C@@H](O)[C@H]2O)[C@H](C)Cl)N(C)C1` [Clindamycin], the MIC in experiment [1] (clinical isolate MCC 10647) stood at 0.03 µg/mL (≈ 0.0706 µM); in [1] (clinical isolate MCC 10810) it was 0.03 µg/mL (≈ 0.0706 µM); in experiment [1] (clinical isolate MCC 10990), 0.03 µg/mL (≈ 0.0706 µM); in [1] (clinical isolate MCC 11495), 0.03 µg/mL (≈ 0.0706 µM); in experiment [1] (clinical isolate MCC 11676), 0.03 µg/mL (≈ 0.0706 µM); in experiment [2] (clinical isolate MCC 11316) it was 4 µg/mL (≈ 9.41 µM). For the same molecule, the MIC in [2] (clinical isolate MCC 11558), in [2] (clinical isolate MCC 11639), in experiment [2] (clinical isolate MCC 11653) and in experiment [2] (clinical isolate MCC 11699) was 4 µg/mL (≈ 9.41 µM) in each case.
`NC[C@H]1O[C@H](O[C@H]2[C@H](O)[C@@H](O[C@H]3O[C@H](CO)[C@@H](O)[C@H](N)[C@H]3O)[C@H](N)C[C@@H]2N)[C@H](N)C[C@@H]1O` [Tobramycin]: the MIC in experiment [1] (clinical isolate MCC 10647) was found to be 32 µg/mL (≈ 68.4 µM); in experiment [1] (clinical isolate MCC 10810), 4 µg/mL (≈ 8.56 µM); in [1] (clinical isolate MCC 10990), 4 µg/mL (≈ 8.56 µM); in experiment [1] (clinical isolate MCC 11495), 4 µg/mL (≈ 8.56 µM); in experiment [1] (clinical isolate MCC 11676) it was 16 µg/mL (≈ 34.2 µM); in experiment [2] (clinical isolate MCC 11316) it was 16 µg/mL (≈ 34.2 µM). Besides, the MIC in experiment [2] (clinical isolate MCC 11558), in experiment [2] (clinical isolate MCC 11639), in experiment [2] (clinical isolate MCC 11653) and in experiment [2] (clinical isolate MCC 11699) was 16 µg/mL (≈ 34.2 µM) each time.
`Cc1onc(-c2ccccc2)c1C(=O)N[C@@H]1C(=O)N2[C@@H]1SC(C)(C)[C@@H]2C(=O)O` [Oxacillin]: the MIC amounted to 2 µg/mL (≈ 4.98 µM) in experiment [1] (clinical isolate MCC 10647); 4 µg/mL (≈ 9.96 µM) in [1] (clinical isolate MCC 10810); 2 µg/mL (≈ 4.98 µM) in [1] (clinical isolate MCC 10990); 4 µg/mL (≈ 9.96 µM) in experiment [1] (clinical isolate MCC 11495); 2 µg/mL (≈ 4.98 µM) in [1] (clinical isolate MCC 11676); 8 µg/mL (≈ 19.9 µM) in experiment [2] (clinical isolate MCC 11316). The MIC in [2] (clinical isolate MCC 11558) came to 16 µg/mL (≈ 39.9 µM); in experiment [2] (clinical isolate MCC 11639), 32 µg/mL (≈ 79.7 µM); in [2] (clinical isolate MCC 11653), 32 µg/mL (≈ 79.7 µM); in [2] (clinical isolate MCC 11699), 32 µg/mL (≈ 79.7 µM).
For the molecule Neomycin, the “minimum inhibitory concentration (MIC)” value is listed as 8.0 micrograms per milliliter in experiment [1] (clinical isolate MCC 10647); 2.0 micrograms per milliliter in experiment [1] (clinical isolate MCC 10810); 2.0 micrograms per milliliter in [1] (clinical isolate MCC 10990); 8.0 micrograms per milliliter in experiment [1] (clinical isolate MCC 11495); 2.0 micrograms per milliliter in experiment [1] (clinical isolate MCC 11676); 1.0 micrograms per milliliter in experiment [2] (clinical isolate MCC 11316). The “minimum inhibitory concentration (MIC)” value in experiment [2] (clinical isolate MCC 11558), in experiment [2] (clinical isolate MCC 11639), in experiment [2] (clinical isolate MCC 11653) and in experiment [2] (clinical isolate MCC 11699) was 1.0 micrograms per milliliter throughout.
Consider `CC1COc2c(N3CCN(C)CC3)c(F)cc3c(=O)c(C(=O)O)cn1c23` (stereo not shown) [Ofloxacin], for which the MIC is 16 µg/mL (≈ 44.3 µM) in experiment [1] (clinical isolate MCC 10647); 32 µg/mL (≈ 88.6 µM) in [1] (clinical isolate MCC 10810); 8 µg/mL (≈ 22.1 µM) in [1] (clinical isolate MCC 10990); 16 µg/mL (≈ 44.3 µM) in experiment [1] (clinical isolate MCC 11495); 8 µg/mL (≈ 22.1 µM) in experiment [1] (clinical isolate MCC 11676); 4 µg/mL (≈ 11.1 µM) in [2] (clinical isolate MCC 11316). For the same molecule, the MIC in [2] (clinical isolate MCC 11558), in experiment [2] (clinical isolate MCC 11639), in experiment [2] (clinical isolate MCC 11653) and in experiment [2] (clinical isolate MCC 11699) was 4 µg/mL (≈ 11.1 µM) each time.
As to `CC[C@H]1OC(=O)[C@H](C)[C@@H](O[C@H]2C[C@@](C)(OC)[C@@H](O)[C@H](C)O2)[C@H](C)[C@@H](O[C@@H]2O[C@H](C)C[C@H](N(C)C)[C@H]2O)[C@](C)(O)C[C@@H](C)C(=O)[C@H](C)[C@@H](O)[C@]1(C)O` [Erythromycin], the MIC in [1] (clinical isolate MCC 10647) is 0.03 µg/mL (≈ 0.0409 µM); in [1] (clinical isolate MCC 10810), 0.03 µg/mL (≈ 0.0409 µM); in experiment [1] (clinical isolate MCC 10990), 0.03 µg/mL (≈ 0.0409 µM); in [1] (clinical isolate MCC 11495), 0.03 µg/mL (≈ 0.0409 µM); in experiment [1] (clinical isolate MCC 11676), 0.03 µg/mL (≈ 0.0409 µM); in experiment [2] (clinical isolate MCC 11316), 1 µg/mL (≈ 1.36 µM). The MIC in experiment [2] (clinical isolate MCC 11558) worked out at 2 µg/mL (≈ 2.73 µM); in experiment [2] (clinical isolate MCC 11639), 2 µg/mL (≈ 2.73 µM); in experiment [2] (clinical isolate MCC 11653), 0.5 µg/mL (≈ 0.681 µM); in [2] (clinical isolate MCC 11699), 0.5 µg/mL (≈ 0.681 µM).
